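Exposure lasted 48 hours, with cells grown in 96-well plates and compounds tested at five concentrations. At the GI50, growth is halved. The concentration for full growth arrest is given as TGI.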
What was measured:
Experiment in all cases: DTP human tumour cell line panel, 48 h
UACC-257 melanoma = test system: UACC-257 melanoma
SW-620 colon = test system: SW-620 colon
SNB-19 CNS = test system: SNB-19 CNS
SK-MEL-2 melanoma = test system: SK-MEL-2 melanoma
M14 melanoma = test system: M14 melanoma
SK-MEL-5 melanoma = test system: SK-MEL-5 melanoma
MOLT-4 leukemia = test system: MOLT-4 leukemia
IGROV1 ovarian = test system: IGROV1 ovarian
HCC-2998 colon = test system: HCC-2998 colon
MDA-MB-231 breast = test system: MDA-MB-231 breast

| Compound | GI50 (UACC-257 melanoma) [µM] | TGI (UACC-257 melanoma) [µM] | GI50 (SW-620 colon) [µM] | TGI (SW-620 colon) [µM] | GI50 (SNB-19 CNS) [µM] | TGI (SNB-19 CNS) [µM] | GI50 (SK-MEL-2 melanoma) [µM] | TGI (SK-MEL-2 melanoma) [µM] | GI50 (M14 melanoma) [µM] | TGI (M14 melanoma) [µM] | GI50 (SK-MEL-5 melanoma) [µM] | TGI (SK-MEL-5 melanoma) [µM] | GI50 (MOLT-4 leukemia) [µM] | TGI (MOLT-4 leukemia) [µM] | GI50 (IGROV1 ovarian) [µM] | TGI (IGROV1 ovarian) [µM] | GI50 (HCC-2998 colon) [µM] | TGI (HCC-2998 colon) [µM] | GI50 (MDA-MB-231 breast) [µM] | TGI (MDA-MB-231 breast) [µM] |
| --- | --- | --- | --- | --- | --- | --- | --- | --- | --- | --- | --- | --- | --- | --- | --- | --- | --- | --- | --- | --- |
| COc1cc(C(=O)NC2CCN(C)CC2)c(F)cc1Nc1ncc2c(n1)N(C1CCCC1)CC(F)(F)C(=O)N2C | 1.25 | 10.9 | < 0.01 | 11.5 | < 0.0281 | 17.1 | < 0.01 | 3.4 | 0.0235 | 5.89 | < 0.022 | 2.32 | 0.0171 | 2.53 | < 0.0217 | 14.5 | 0.0293 | 12.3 |  |  |
| C[CH2][Sn]([CH2]C)([O]C(=O)C(OC(C)=O)c1ccccc1)[O]C(=O)C(OC(C)=O)c1ccccc1 (stereo unspecified) | 16.7 | 33.4 | 16.3 | 36.8 | 52 | > 100 | 54.6 | > 100 | 44.5 | > 100 | 68.1 | > 100 | 17.2 | 60.9 | > 100 | > 100 |  |  | 26.6 | 77.8 |
| O=C(COc1ccc(/C=C2\Oc3ccccc3C2=O)cc1)Nc1nc2c(s1)CCCC2 | 0.0449 | 0.835 | 4.07 | > 100 | 46.9 | > 100 | 4.87 | 50.2 | 16.1 | > 100 | 17.4 | > 57.5 |  |  | 0.0164 | 0.0361 | 16 | 52.3 | 0.709 | 6.38 |
| COc1ccc(C(=O)C(c2ccc(OC)cc2)C2(O)C(=O)Nc3c2ccc(Cl)c3C)cc1 (stereo unspecified) |  | > 100 |  | > 100 |  | > 100 |  | > 100 |  | > 100 |  | > 100 |  | > 100 |  | > 100 |  | > 100 |  |  |
| COc1ccc2ccccc2c1C1OC(=O)c2ccccc21 (stereo unspecified) |  | > 100 |  | > 100 |  | > 100 |  |  |  | > 100 |  | > 100 |  | > 100 |  | > 100 |  | > 100 |  |  |
| COc1ccc(OC)c(NC(=O)CCC/C(CC(=O)c2ccc(O)c(OC)c2)=N\Nc2ccc([N+](=O)[O-])cc2)c1 |  | > 100 |  | > 100 |  | > 100 |  | > 100 |  | > 100 |  | > 100 |  | > 100 |  | > 100 |  | > 100 |  |  |
| C[C@]12CC[C@H]3[C@@H](CC[C@]4(O)C[C@@H](O)CC[C@]34/C=N/O)[C@@]1(O)CC[C@@H]2C1=COC(=O)C1 |  | 1.62 |  |  |  | 2.05 |  | 0.587 |  | 0.657 |  | 0.241 |  |  |  | 2.98 |  | 0.687 |  |  |
| COc1cc(C2C(Cl)C(=O)N2NC(=O)c2ccc(N)cc2)ccc1O (stereo unspecified) |  | > 100 |  | 35.2 |  | 78.9 |  | > 100 |  | > 100 |  | > 100 |  | 60.3 |  | > 100 |  | 38 |  |  |
| CCOC(=O)NC(=O)c1cn(CCCCCCOC(=O)NCCCCCCNC(=O)OCCCCCCn2cc(C(=O)NC(=O)OCC)c(=O)[nH]c2=O)c(=O)[nH]c1=O |  | > 100 |  | > 100 |  | > 100 |  | > 100 |  | > 100 |  | > 100 |  | > 100 |  | > 100 |  | > 100 |  |  |
| O=S1(=O)OCCOS(=O)(=O)C1Cc1ccccc1 |  | > 100 |  | > 100 |  | > 100 |  |  |  |  |  |  |  | > 100 |  | 93.3 |  | 45.4 |  |  |
| COC(=O)CCC(NC(=S)N/N=C/c1ccco1)C(=O)OC (stereo unspecified) |  | > 100 |  | > 100 |  | > 100 |  | > 100 |  | > 100 |  | > 100 |  |  |  | > 100 |  | > 100 |  |  |
| COC(=O)C1=CC2C(=O)OC1CC2C#N (stereo unspecified) |  | > 100 |  | > 100 |  | > 100 |  |  |  | > 100 |  | > 100 |  | > 100 |  | > 100 |  | > 100 |  |  |
| O=C(c1ccccc1)c1cccc(C(=O)c2ccccc2)c1 |  | > 100 |  | > 100 |  | > 100 |  | > 100 |  | > 100 |  | > 100 |  | > 100 |  | > 100 |  | > 100 |  |  |
| O=C(Nc1ccc(Cl)c(Cl)c1)O/N=C\c1c(Cl)ccc([N+](=O)[O-])c1Cl | 1.46 | 2.86 |  |  | 7.6 | 20.6 | 2.34 | 4.98 | 2.44 | 8.18 | 2.38 | 8.59 | 2.23 | 5.46 | 2.08 | 4.57 |  |  | 1.56 | 3.41 |
| CC(=O)C1C(=O)C(=O)N(c2ccccc2C(C)C)C1=O (stereo unspecified) |  | > 100 |  | > 100 |  | > 100 |  | > 100 |  | > 100 |  | > 100 |  | > 100 |  | > 100 |  | > 100 |  |  |
| CC1=C2C(=CC(C)(C)C2O)C(=O)C(C)(O)C12CC2 (stereo unspecified) |  | 0.0442 |  | 0.0752 |  | 0.17 | 0.0108 | 0.0283 |  | 0.0602 |  | 0.0219 |  | 0.0245 |  | 0.132 |  | 0.0268 |  |  |
| NC(=O)c1c(NC(=O)c2ccc3c(c2)OCO3)sc2c1CCC(=O)C2 |  |  |  |  | 2.17 | > 100 |  |  | 0.59 | > 100 | 1.77 | 3.17 |  |  |  |  | 3.45 | > 100 | 2.44 | 6.89 |
| C[C@]12CCC3[C@@H](CC[C@@H]4c5nonc5CC[C@]34C)C1C/C(=N/O)C2=O (stereo partly specified) |  | > 100 |  | > 100 |  | > 100 |  | 52 |  | > 100 |  | > 100 |  | > 100 |  | > 100 |  |  |  |  |
| COc1cc([C@H]2OC[C@H]3[C@@H]2CO[C@@H]3c2cc(OC)c3c(c2)OCO3)cc(OC)c1OC |  | > 100 |  | > 100 |  | > 100 |  | > 100 |  | > 100 |  | 48.7 |  |  |  | > 100 |  | > 100 |  | > 100 |
| C[Si](C)(C)c1ccc(-c2sc(-c3ccc([Si](C)(C)C)s3)c3c2C[Si]2(C3)Cc3c(-c4ccc([Si](C)(C)C)s4)sc(-c4ccc([Si](C)(C)C)s4)c3C2)s1 |  | > 100 |  | > 100 |  | > 100 |  |  |  | > 100 |  | > 100 |  | > 100 |  | > 100 |  | > 100 |  |  |
